Results from US11332463B2, “Spiropiperidine allosteric modulators of nicotinic acetylcholine receptors” (Merck Sharp & Dohme Corp., priority 2018, dated 2022).
Like-named read-outs stand apart in the source and are kept apart here.

Target: T1, human α7 nicotinic acetylcholine receptor (HEK cell line stably expressing human RIC-3 and human α7) (Homo sapiens, UniProt P36544)
T1 construct: host or cells: HEK cell line (PrecisION hnAChR α7/RIC-3)
Test: Automated patch-clamp electrophysiology functional assay (Assay A), IonFlux HT, whole-cell population patch
Format: cell-based

[1] = HEK cells expressing human α7/RIC-3, test compound with or without 40 μM acetylcholine, holding potential −60 mV, room temperature, read-out: α7 nAChR Potency
[2] = automated patch-clamp electrophysiology functional assay (Assay A), read-out: α7 nAChR EC50

T1 sequence (P36544 23-502): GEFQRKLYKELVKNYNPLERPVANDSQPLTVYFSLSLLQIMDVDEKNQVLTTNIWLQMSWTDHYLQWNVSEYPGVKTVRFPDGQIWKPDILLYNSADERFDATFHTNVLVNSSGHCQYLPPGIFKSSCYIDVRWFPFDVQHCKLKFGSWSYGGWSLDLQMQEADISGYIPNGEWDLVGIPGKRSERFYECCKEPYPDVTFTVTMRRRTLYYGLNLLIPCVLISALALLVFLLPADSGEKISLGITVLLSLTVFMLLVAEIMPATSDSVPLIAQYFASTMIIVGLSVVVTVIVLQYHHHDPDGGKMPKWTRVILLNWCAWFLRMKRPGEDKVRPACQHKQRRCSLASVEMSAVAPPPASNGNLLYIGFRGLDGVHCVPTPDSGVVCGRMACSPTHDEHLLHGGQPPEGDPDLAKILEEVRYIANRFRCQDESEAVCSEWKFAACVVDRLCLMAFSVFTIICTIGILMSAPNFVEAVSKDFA

Structure (SMILES)	EC50 [1]	EC50 [2]
NS(=O)(=O)N1CCC2(CC1)C[C@H]2c1noc(Cc2c(F)cccc2C(F)(F)F)n1 [Example E4]	5 to 50 µM	7.2 µM
NS(=O)(=O)N1CCC2(CC1)C[C@H]2c1noc(C2(c3cc(F)ccc3F)CCC2)n1 [Example E10]	0.5 to 5 µM	3.4 µM
NS(=O)(=O)N1CCC2(CC1)C[C@H]2c1noc(Cc2ccc(F)cc2C(F)(F)F)n1 [Example E12]	0.5 to 5 µM	3.7 µM
NS(=O)(=O)N1CCC2(CC1)C[C@H]2c1noc(C2(c3cccc(C(F)(F)F)c3)CC2)n1 [Example E14]	0.5 to 5 µM	2 µM
Cc1ccc(C)c(-c2nc([C@@H]3CC34CCN(S(N)(=O)=O)CC4)no2)n1 [Example E16]	0.5 to 5 µM	1.3 µM
NS(=O)(=O)N1CCC2(CC1)C[C@H]2c1noc(-c2cccc(C(F)(F)F)n2)n1 [Example E17]	0.5 to 5 µM	1.4 µM
NS(=O)(=O)N1CCC2(CC1)C[C@H]2c1noc(-c2ccnc(OCC(F)(F)F)c2)n1 [Example E18]	0.5 to 5 µM	1.1 µM
NS(=O)(=O)N1CCC2(CC1)C[C@H]2c1noc(C2CC3(CCC3)C2)n1 [Example E20]	0.5 to 5 µM	2.7 µM
NS(=O)(=O)N1CCC2(CC1)C[C@H]2c1noc(-c2cnn(CC(F)(F)F)c2)n1 [Example E22]	0.5 to 5 µM	3 µM
NS(=O)(=O)N1CCC2(CC1)C[C@H]2c1noc(-c2ocnc2C(F)(F)F)n1 [Example E23]	0.5 to 5 µM	4.5 µM
CCc1ncoc1-c1nc([C@@H]2CC23CCN(S(N)(=O)=O)CC3)no1 [Example E24]	0.5 to 5 µM	3.6 µM
NS(=O)(=O)N1CCC2(CC1)C[C@H]2c1noc(-c2ccn(CC(F)(F)F)n2)n1 [Example E25]	0.5 to 5 µM	2.2 µM
NS(=O)(=O)N1CCC2(CC1)C[C@H]2c1noc(-c2conc2C2CC2)n1 [Example E26]	0.5 to 5 µM	0.57 µM
Cc1onc(-c2nc([C@@H]3CC34CCN(S(N)(=O)=O)CC4)no2)c1C [Example E27]	0.5 to 5 µM	1.3 µM
Cc1noc(C)c1Cc1nc([C@@H]2CC23CCN(S(N)(=O)=O)CC3)no1 [Example E28]	0.5 to 5 µM	–
NS(=O)(=O)N1CCC2(CC1)C[C@H]2c1noc(-c2conc2C(F)(F)F)n1 [Example E29]	0.5 to 5 µM	1.6 µM
NS(=O)(=O)N1CCC2(CC1)C[C@H]2c1noc(-c2ccnn2C2CC2)n1 [Example E30]	0.5 to 5 µM	0.78 µM
NS(=O)(=O)N1CCC2(CC1)C[C@H]2c1noc(-c2cc(-n3ccnc3)ncc2C(F)(F)F)n1 [Example E31]	0.5 to 5 µM	4.3 µM
Cc1cnc2cc(-c3nc([C@@H]4C(F)(F)C45CCN(S(N)(=O)=O)CC5)no3)ccn12 [Example E36]	0.5 to 5 µM	1.1 µM
NS(=O)(=O)N1CCC2(CC1)[C@H](c1noc(-c3cnn4c3CCCC4)n1)C2(F)F [Example E40]	0.5 to 5 µM	0.84 µM
NS(=O)(=O)N1CCC2(CC1)[C@H](c1noc(-c3cnn4c3CCC4)n1)C2(F)F [Example E42]	0.5 to 5 µM	1.1 µM
Cn1nc(C(F)(F)F)cc1-c1nc([C@@H]2C(F)(F)C23CCN(S(N)(=O)=O)CC3)no1 [Example E45]	0.5 to 5 µM	0.55 µM
NS(=O)(=O)N1CCC2(CC1)[C@H](c1noc(-c3cc(C(F)(F)F)n(C4CC4)n3)n1)C2(F)F [Example E46]	0.5 to 5 µM	0.51 µM
NS(=O)(=O)N1CCC2(CC1)C[C@H]2c1noc(-c2ccnnc2C2CC2)n1 [Example E50]	0.5 to 5 µM	1.4 µM
CC(C)Oc1cc(-c2nc([C@@H]3C(F)(F)C34CCN(S(N)(=O)=O)CC4)no2)ccn1 [Example E51]	0.5 to 5 µM	0.53 µM
Cc1cnn(C)c1-c1nc([C@@H]2CC23CCN(S(N)(=O)=O)CC3)no1 [Example E52]	0.5 to 5 µM	1.7 µM
NS(=O)(=O)N1CCC2(CC1)[C@H](c1noc(-c3cnn4c3CSC4)n1)C2(F)F [Example E53]	0.5 to 5 µM	1.2 µM

Second part, the compound after the results:

EC50 [1]	EC50 [2]	Structure (SMILES)
0.5 to 5 µM	0.82 µM	NS(=O)(=O)N1CCC2(CC1)C[C@H]2c1noc(-c2ccc(C(F)(F)F)cc2OC(F)F)n1 [Example D9]
< 0.1 µM	0.088 µM	NS(=O)(=O)N1CCC2(CC1)C[C@H]2c1noc(-c2ccc(Cl)cc2OC(F)F)n1 [Example D10]
0.5 to 5 µM	0.51 µM	NS(=O)(=O)N1CCC2(CC1)C[C@H]2c1noc(-c2cccc(OC(F)F)c2)n1 [Example D11]
0.5 to 5 µM	1.2 µM	NS(=O)(=O)N1CCC2(CC1)C[C@H]2c1noc(-c2c(F)cccc2C(F)(F)F)n1 [Example D12]
0.5 to 5 µM	0.7 µM	COc1ccc(-c2nc([C@@H]3CC34CCN(S(N)(=O)=O)CC4)no2)cc1 [Example D13]
0.5 to 5 µM	–	NS(=O)(=O)N1CCC2(CC1)C[C@H]2c1noc(-c2ccc(OC(F)F)cc2)n1 [Example D14]
0.5 to 5 µM	1.2 µM	NS(=O)(=O)N1CCC2(CC1)C[C@H]2c1noc(-c2ccc(F)cc2F)n1 [Example D15]
0.1 to 0.5 µM	0.16 µM	NS(=O)(=O)N1CCC2(CC1)C[C@H]2c1noc(-c2ccc(F)cc2C(F)(F)F)n1 [Example D16]
0.5 to 5 µM	0.63 µM	NS(=O)(=O)N1CCC2(CC1)C[C@H]2c1noc(-c2ccccc2C(F)(F)F)n1 [Example D17]
0.1 to 0.5 µM	0.16 µM	NS(=O)(=O)N1CCC2(CC1)C[C@H]2c1noc(-c2ccccc2OCC(F)(F)F)n1 [Example D18]
0.1 to 0.5 µM	–	Cc1ccc(-c2nc([C@@H]3CC34CCN(S(N)(=O)=O)CC4)no2)c(C)c1 [Example D19]
0.1 to 0.5 µM	0.2 µM	NS(=O)(=O)N1CCC2(CC1)C[C@H]2c1noc(-c2ccccc2OC(F)(F)F)n1 [Example D20]
0.1 to 0.5 µM	0.24 µM	NS(=O)(=O)N1CCC2(CC1)C[C@H]2c1noc(-c2cc(F)ccc2OC(F)(F)F)n1 [Example D21]
0.1 to 0.5 µM	0.41 µM	NS(=O)(=O)N1CCC2(CC1)C[C@H]2c1noc(-c2cc(Cl)ccc2OC(F)(F)F)n1 [Example D22]
0.5 to 5 µM	1.4 µM	CC(C)(O)c1ccc(-c2nc([C@@H]3CC34CCN(S(N)(=O)=O)CC4)no2)cc1 [Example D23]
0.1 to 0.5 µM	0.24 µM	NS(=O)(=O)N1CCC2(CC1)C[C@H]2c1noc(-c2ccc(F)cc2OC(F)F)n1 [Example D24]
0.1 to 0.5 µM	0.13 µM	Cc1cc(C)c(-c2nc(C3CC34CCN(S(N)(=O)=O)CC4)no2)cc1C (stereo not drawn) [Example D25]
< 0.1 µM	0.013 µM	NS(=O)(=O)N1CCC2(CC1)C(c1noc(-c3ccccc3C3CC3)n1)C2(F)F (stereo not drawn) [Example D26]
0.1 to 0.5 µM	0.31 µM	Cc1cn(C2CC2)c2ccc(-c3nc([C@@H]4CC45CCN(S(N)(=O)=O)CC5)no3)cc12 [Example E1]

EC50 [1]	EC50 [2]	Structure (SMILES)
0.5 to 5 µM	1.1 µM	Cc1ncccc1-c1nc([C@@H]2CC23CCN(S(N)(=O)=O)CC3)no1 [Example E2]
0.5 to 5 µM	–	NS(=O)(=O)N1CCC2(CC1)C[C@H]2c1noc(Cc2cc(C(F)(F)F)ccc2F)n1 [Example E5]
0.5 to 5 µM	0.93 µM	Cc1cccc(C)c1Cc1nc([C@@H]2CC23CCN(S(N)(=O)=O)CC3)no1 [Example E6]
0.5 to 5 µM	–	NS(=O)(=O)N1CCC2(CC1)C[C@H]2c1noc(Cc2cc(F)ccc2C(F)(F)F)n1 [Example E9]
0.1 to 0.5 µM	0.29 µM	Cc1ccc(C(F)(F)F)nc1-c1nc([C@@H]2CC23CCN(S(N)(=O)=O)CC3)no1 [Example E19]
0.1 to 0.5 µM	0.4 µM	CCn1nc(C)cc1-c1nc([C@@H]2CC23CCN(S(N)(=O)=O)CC3)no1 [Example E21]
0.1 to 0.5 µM	0.33 µM	Cn1ncc(C(F)(F)F)c1-c1nc([C@@H]2CC23CCN(S(N)(=O)=O)CC3)no1 [Example E32]
0.1 to 0.5 µM	0.47 µM	NS(=O)(=O)N1CCC2(CC1)[C@H](c1noc(-c3ccnc(OC4CC4)c3)n1)C2(F)F [Example E33]
0.1 to 0.5 µM	0.13 µM	NS(=O)(=O)N1CCC2(CC1)[C@H](c1noc(-c3ccnn3C3CC3)n1)C2(F)F [Example E34]
0.1 to 0.5 µM	0.25 µM	CC(C)(C)n1nccc1-c1nc([C@@H]2C(F)(F)C23CCN(S(N)(=O)=O)CC3)no1 [Example E35]
< 0.1 µM	0.078 µM	CCn1cc(-c2nc([C@@H]3C(F)(F)C34CCN(S(N)(=O)=O)CC4)no2)c(C2CC2)n1 [Example E37]
0.1 to 0.5 µM	0.27 µM	Cn1ncc(-c2nc([C@@H]3C(F)(F)C34CCN(S(N)(=O)=O)CC4)no2)c1C(F)(F)F [Example E38]
0.1 to 0.5 µM	0.15 µM	CC(C)(C)n1ncc(-c2nc([C@@H]3C(F)(F)C34CCN(S(N)(=O)=O)CC4)no2)c1C(F)(F)F [Example E39]
< 0.1 µM	0.015 µM	Cc1n[nH]c(C2CC2)c1-c1nc([C@@H]2C(F)(F)C23CCN(S(N)(=O)=O)CC3)no1 [Example E41]
0.1 to 0.5 µM	0.5 µM	Cn1nccc1-c1nc([C@@H]2C(F)(F)C23CCN(S(N)(=O)=O)CC3)no1 [Example E43]
0.1 to 0.5 µM	–	Cn1nc(-c2nc([C@@H]3C(F)(F)C34CCN(S(N)(=O)=O)CC4)no2)c2c1CCC2 [Example E44]
0.1 to 0.5 µM	–	NS(=O)(=O)N1CCC2(CC1)[C@H](c1noc(-c3c4c(nn3C3CC3)CCCC4)n1)C2(F)F [Example E47]
< 0.1 µM	0.06 µM	NS(=O)(=O)N1CCC2(CC1)[C@H](c1noc(-c3c(C(F)(F)F)cnn3C3CC3)n1)C2(F)F [Example E48]
0.1 to 0.5 µM	0.27 µM	NS(=O)(=O)N1CCC2(CC1)[C@H](c1noc(-c3ccnnc3C3CC3)n1)C2(F)F [Example E49]
